Key:
[1] = target: T1, CA-IX expressing HT-29 cells (Homo sapiens, UniProt Q16790); test: Cellular binding assessment by flow cytometry; conditions: for Kd: HT-29 cells, 1 hour 30 min on ice, flow cytometry, read-out: CA-IX receptor affinity (KD, nM to HT-29 cells); for KD to HT-29 cells, fold lower than corresponding Reference compound: compound 1 vs Reference 2, compound 2 vs Reference 3; for KD to HT-29 cells compared with Reference 1 (HF-1): versus Reference 1 (HF-1)
T1 construct: CA-IX, expressed in its physiological environment at the cell-surface; host or cells: HT-29 human colorectal adenocarcinoma cells
Description: Human colon adenocarcinoma HT-29 cells (ATCC) used for the cellular binding experiments were cultured in McCoy's 5A medium (Sigma-Aldrich), supplemented with 10% HyClone Fetal Clone III (Euroclone), 2 mM L-glutamine (Sigma-Aldrich), 100 IU/mL penicillin, 0.1 mg/mL streptomycin, 0.25 μg/mL amphotericin B (Antibiotic-Antimycotic solution, Life Technologies) and cells were grown at 37° C. in humidified atmosphere enriched with 5% CO2. DPBS without MgCl2 and CaCl2) (Sigma-Aldrich) was used for cell rinsing.
Indeed, by using the anti-human CA-IX antibody MAB2188 (R&D Systems) and the DAKO […], according to the instruction of the datasheet, HT-29 cells were estimated to express about 150,000 CA-IX molecules per cell. Thus, HT-29 cells were used to measure the binding of all compounds to CA-IX, expressed in its physiological environment at the cell-surface. Briefly, HT-29 cells were detached with StemPro® Accutase® Cell Dissociation Reagent (Life Technologies), collected in DPBS and counted. At least 2·10^5 HT-29 cells were placed in 1.5 mL tubes on ice and resuspended in 50-100 μL of cold FACS buffer (eBioscience™ Flow Cytometry Staining Buffer, Invitrogen) containing scalar concentrations of compounds (HF-1, reference 2, and compound 1: range 0-20 μM; reference 3: range 0-24 μM; compound 2: range 0-10 μM). After incubation (1 hour and 30 min on ice in the dark), cells were rinsed 3 times in 300 μL of cold FACS buffer by centrifugation (5 min, 4° C., 350 RCF), discarding the supernatant. Cell pellets were then resuspended in 200 μL of cold FACS buffer (or in an adequate volume in order to obtain no more than 1000 recorded events per μL during FACS analysis) and analyzed with the flow cytometer Accuri™ C6 (BD Biosciences). The mean cell-associated fluorescence was plotted against concentration and the dissociation constant at equilibrium (KD) was inferred by mathematical fitting with GraphPad Prism v.9 software, according to the following equation: […]
where Bmax is the maximum specific binding in the same units as Y; KD is the equilibrium dissociation constant, in the same units as X; NS is the slope of nonspecific binding in Y units divided by X units; and background is the amount of nonspecific binding with no added Compound.
All compounds were analyzed in at least three independent experiments.

CA-IX on HT-29 cells = target: T2, CA-IX on HT-29 cells (Homo sapiens, UniProt Q16790); test: Cellular specificity: binding to HT-29 cells in competition with MSC8 antibody; type: cell-based; conditions: compound 1 0.125 μM, MSC8 0.0125/0.125/1.25/2.5 μM, on ice
T2 construct: CA-IX, expressed in its physiological environment at the cell-surface; host or cells: HT-29 human colorectal adenocarcinoma cells
Description: HT-29 cells were co-incubated, on ice in suspension, with compound 1, at the established concentration of 0.125 μM, and different concentrations of MSC8 (0.1×, 1×, 10× and 20× with respect to compound 1, i.e. 0.0125/0.125/1.25/2.5 μM); in addition, HT-29 cells were incubated with either compound 1 alone, or each concentration of MSC8 alone as well. The resulting binding of both compound 1 and MSC8 was then recorded as cell-associated fluorescence intensity, using for MSC8 a secondary antibody labelled with Alexa Fluor™ 488 (ThermoFischer), and compared to the one resulting from both compounds alone, taken as 100%.

| Structure (SMILES) | Kd [1] [nM] | KD to HT-29 cells, fold lower than corresponding Reference compound [1] | KD to HT-29 cells compared with Reference 1 (HF-1) [1] | binding of compound 1 to HT-29 cells in presence of MSC8 (CA-IX on HT-29 cells) |
| --- | --- | --- | --- | --- |
| CC(CC[N+]1=C(/C=C/C=C/C=C/C=C2/N(CCCCCC(=O)NCCCCCCCC(=O)Nc3nnc(S(N)(=O)=O)s3)c3ccc(C(=O)NC[C@H](O)[C@@H](O)[C@H](O)[C@H](O)CO)cc3C2(C)C)C(C)(C)c2cc(C(=O)NC[C@H](O)[C@@H](O)[C@H](O)[C@H](O)CO)ccc21)S(=O)(=O)[O-] (stereo partly shown) [Compound 2] | 58 ± 9 | more than 4 fold | 2 fold |  |
| CC1(C)C(/C=C/C2=C(Oc3ccc(S(=O)(=O)O)cc3)C(=C/C=C3/N(CCCCCC(=O)NCCCCCCCC(=O)Nc4nnc(S(N)(=O)=O)s4)c4ccc(C(=O)NC[C@H](O)[C@@H](O)[C@H](O)[C@H](O)CO)cc4C3(C)C)/CCC2)=[N+](CCCCS(=O)(=O)[O-])c2ccc(C(=O)NC[C@H](O)[C@@H](O)[C@H](O)[C@H](O)CO)cc21 [Compound 1] | 174 ± 15 | 2 fold | rather comparable | reduced in a dose-dependent manner |
